Test results taken from patent US6930314B2, “Light detection device” (Molecular Devices Corporation, priority 2000, dated 2005).

Tested on: CHO ml cells
Experiment: Calcium flux assay
Type: cell-based
Details: CHO ml cells in 384-well microplate loaded with fluorescent calcium ion indicator; carbachol 10 nM, 100 nM, 10 μM; single selected well, frames about two seconds apart
Experimental: This example, illustrated in FIGS. 6 and 7, describes calcium flux assays conducted using an apparatus constructed in accordance with aspects of the invention.
Cultured CHO ml cells were grown overnight in a 384-well microplate, then loaded with a cell-permeant form of a fluorescent calcium ion indicator for 1 hour. […] The manual addition of carbachol (a calcium flux stimulant) in 10 nM, 100 nM, and 10 μM concentrations was used to mimic small, medium, and large sustained responses.
The figure records the average light intensity in a single selected well as a function of frame number (each frame taken approximately two seconds apart), where the selected well was one to which carbachol was added.
Here, no sustained increase in signal strength was observed, although there were small fluctuations due to shot-to-shot variations in illumination laser intensity.

C[N+](C)(C)CCOC(N)=O [carbachol]
fluorescence signal (calcium flux response) after addition of carbachol: rapid increase in the fluorescence signal over the first few frames, with a slow decay
